The OligoGym collection
Bases are written 5' to 3'; sugars and linkages follow in the same order, as letters with counts (s phosphorothioate, o phosphodiester; PS: all linkages phosphorothioate). C may stand for cytosine or 5-methylcytosine; the collection does not tell. l = locked nucleic acid (LNA); d = 2'-deoxy (DNA)

What follows are sequences tested against HIF1A (assay: HeLa, 100 nM transfected, 24 h, mean of 3). Conditions: ASO.
Sequence TGGCAAGCATCCT (sugars l4 d7 l2, PS) has a caspase activation (% of PBS control) of 447. “GTTACTGCCTTCTTAC (sugars lldldddddddllddl, PS)” was tested, and the caspase activation (% of PBS control) was 196. Sequence “GCAAGCATCCTGT (sugars lddlddddddldl, PS)” has a caspase activation (% of PBS control) of 109. For “TGGCAAGCATCCTGTA (sugars ldddlddddddlddll, PS)”, the caspase activation (% of PBS control) was 221. In the case of “GTTACTGCCTTCTTAC (sugars l2 d1 l1 d9 l3, PS)”, the caspase activation (% of PBS control) is reported as 130. “TGGCAAGCATCCTGTA (sugars lddllddddddlldll, PS)” gave a caspase activation (% of PBS control) of 388. GGCAAGCATCCTG (sugars l4 d7 l2, PS) gave a caspase activation (% of PBS control) of 528. “TGGCAAGCATCCTGTA (sugars llddldddddddldll, PS)” gave a caspase activation (% of PBS control) of 401. Sequence “TGGCAAGCATCCTGTA (sugars lldldddddddldlll, PS)” has a caspase activation (% of PBS control) of 423. “GTTACTGCCTTCTTAC (sugars ldldldddddddllll, PS)” showed a caspase activation (% of PBS control) of 257. For TTACTGCCTTCTT (sugars l3 d8 l2, PS), the caspase activation (% of PBS control) was 226. “GTTACTGCCTTCTTAC (sugars l3 d10 l1 d1 l1, PS)” showed a caspase activation (% of PBS control) of 161. “GTTACTGCCTTCTTAC (sugars ldldlddddddldddl, PS)” showed a caspase activation (% of PBS control) of 234. In the case of “GTTACTGCCTTCTTAC (sugars l1 d2 l2 d9 l2, PS)”, the caspase activation (% of PBS control) is reported as 149. TACTGCCTTCTTA (sugars l1 d9 l3, PS) showed a caspase activation (% of PBS control) of 158. Work on GTTACTGCCTTCTTAC (sugars l5 d7 l4, PS) yielded a caspase activation (% of PBS control) of 574. “CAAGCATCCTGTA (sugars lldlddddddldl, PS)” gave a caspase activation (% of PBS control) of 142. “CAAGCATCCTGTA (sugars l1 d1 l1 d8 l2, PS)” gave a caspase activation (% of PBS control) of 171. “CAAGCATCCTGTA (sugars l1 d2 l1 d8 l1, PS)” showed a caspase activation (% of PBS control) of 101. GTTACTGCCTTCTTAC (sugars l3 d12 l1, PS) showed a caspase activation (% of PBS control) of 127. Sequence “TGGCAAGCATCCTGTA (sugars lldldddddddldldl, PS)” has a caspase activation (% of PBS control) of 429. For TTACTGCCTTCTT (sugars l1 d11 l1, PS), the caspase activation (% of PBS control) was 82.9. With “GTTACTGCCTTCTTAC (sugars llldldddddddlldl, PS)” the caspase activation (% of PBS control) was 341. Sequence “GTTACTGCCTTCTTAC (sugars l2 d1 l1 d10 l2, PS)” has a caspase activation (% of PBS control) of 97.3. TTACTGCCTTCTT (sugars l3 d7 l3, PS) showed a caspase activation (% of PBS control) of 291. “GTTACTGCCTTCTTAC (sugars llldlddddddldldl, PS)” was tested, and the caspase activation (% of PBS control) was 316. “GTTACTGCCTTCTTAC (sugars l5 d6 l2 d2 l1, PS)” was tested, and the caspase activation (% of PBS control) was 492. In the case of GTTACTGCCTTCT (sugars l4 d7 l2, PS), the caspase activation (% of PBS control) is reported as 196. “CAAGCATCCTGTA (sugars ldllddddddldl, PS)” showed a caspase activation (% of PBS control) of 130. “GTTACTGCCTTCTTAC (sugars ldlllddddddlldll, PS)” showed a caspase activation (% of PBS control) of 410. With “TGGCAAGCATCCTGTA (sugars ldlddddddddldddl, PS)” the caspase activation (% of PBS control) was 160. Sequence “TGGCAAGCATCCTGTA (sugars ldddldddddddlldl, PS)” has a caspase activation (% of PBS control) of 167. “GTTACTGCCTTCTTAC (sugars ldllddddddddlddl, PS)” was tested, and the caspase activation (% of PBS control) was 183. For “TGGCAAGCATCCTGTA (sugars ldldlddddddlllll, PS)”, the caspase activation (% of PBS control) was 342. For GGCAAGCATCCTG (sugars l4 d6 l3, PS), the caspase activation (% of PBS control) was 618. Sequence “GTTACTGCCTTCTTAC (sugars ldddldddddddlldl, PS)” has a caspase activation (% of PBS control) of 245. Work on “CAAGCATCCTGTA (sugars l1 d1 l2 d6 l3, PS)” yielded a caspase activation (% of PBS control) of 134. “ACTGCCTTCTTAC (sugars l1 d2 l1 d7 l2, PS)” was tested, and the caspase activation (% of PBS control) was 112. With “TGGCAAGCATCCTGTA (sugars l1 d1 l3 d10 l1, PS)” the caspase activation (% of PBS control) was 595. For “GTTACTGCCTTCTTAC (sugars lddlldddddddldll, PS)”, the caspase activation (% of PBS control) was 240. “ACTGCCTTCTTAC (sugars l1 d1 l1 d9 l1, PS)” was tested, and the caspase activation (% of PBS control) was 188. With “TGGCAAGCATCCT (sugars l1 d1 l1 d9 l1, PS)” the caspase activation (% of PBS control) was 160. With “TGGCAAGCATCCTGTA (sugars ldlldddddddldddl, PS)” the caspase activation (% of PBS control) was 229. In the case of “GTTACTGCCTTCTTAC (sugars ldlldddddddldddl, PS)”, the caspase activation (% of PBS control) is reported as 213. For GTTACTGCCTTCTTAC (sugars l4 d8 l4, PS), the caspase activation (% of PBS control) was 272. Work on “CAAGCATCCTGTA (sugars l1 d1 l2 d8 l1, PS)” yielded a caspase activation (% of PBS control) of 145. With “GTTACTGCCTTCTTAC (sugars l1 d2 l1 d10 l2, PS)” the caspase activation (% of PBS control) was 93.2. “GTTACTGCCTTCTTAC (sugars lldllddddddlldll, PS)” gave a caspase activation (% of PBS control) of 289. “TGGCAAGCATCCTGTA (sugars lldlldddddddlldl, PS)” was tested, and the caspase activation (% of PBS control) was 362. “TGGCAAGCATCCTGTA (sugars lddllddddddllldl, PS)” showed a caspase activation (% of PBS control) of 416. For “CAAGCATCCTGTA (sugars ldldddddddldl, PS)”, the caspase activation (% of PBS control) was 136. In the case of “GTTACTGCCTTCT (sugars l1 d2 l1 d7 l2, PS)”, the caspase activation (% of PBS control) is reported as 136. “TGGCAAGCATCCTGTA (sugars llldldddddddlddl, PS)” showed a caspase activation (% of PBS control) of 341. Sequence “CAAGCATCCTGTA (sugars l2 d1 l1 d8 l1, PS)” has a caspase activation (% of PBS control) of 123. “TGGCAAGCATCCTGTA (sugars l1 d2 l1 d10 l2, PS)” gave a caspase activation (% of PBS control) of 196. “TGGCAAGCATCCTGTA (sugars l2 d9 l3 d1 l1, PS)” gave a caspase activation (% of PBS control) of 352. With “TGGCAAGCATCCT (sugars l1 d2 l1 d8 l1, PS)” the caspase activation (% of PBS control) was 178. “TACTGCCTTCTTA (sugars l1 d1 l1 d7 l3, PS)” gave a caspase activation (% of PBS control) of 494. In the case of “TGGCAAGCATCCTGTA (sugars l5 d7 l1 d2 l1, PS)”, the caspase activation (% of PBS control) is reported as 386. In the case of “TGGCAAGCATCCTGTA (sugars l1 d2 l2 d9 l2, PS)”, the caspase activation (% of PBS control) is reported as 380. With “TGGCAAGCATCCT (sugars l4 d6 l1 d1 l1, PS)” the caspase activation (% of PBS control) was 480. For “TTACTGCCTTCTT (sugars l2 d8 l1 d1 l1, PS)”, the caspase activation (% of PBS control) was 198. “TGGCAAGCATCCTGTA (sugars lddldddddddldldl, PS)” was tested, and the caspase activation (% of PBS control) was 274. With “TACTGCCTTCTTA (sugars l1 d1 l1 d8 l2, PS)” the caspase activation (% of PBS control) was 277. Sequence “GTTACTGCCTTCTTAC (sugars l1 d10 l2 d1 l2, PS)” has a caspase activation (% of PBS control) of 136. “CAAGCATCCTGTA (sugars l2 d1 l1 d7 l2, PS)” gave a caspase activation (% of PBS control) of 133. For “GCAAGCATCCTGT (sugars l1 d1 l1 d7 l3, PS)”, the caspase activation (% of PBS control) was 239. With “GTTACTGCCTTCT (sugars ldldddddddldl, PS)” the caspase activation (% of PBS control) was 108. For “TGGCAAGCATCCTGTA (sugars lddllddddddldddl, PS)”, the caspase activation (% of PBS control) was 361. “GTTACTGCCTTCTTAC (sugars lldlddddddddldll, PS)” showed a caspase activation (% of PBS control) of 139. “TGGCAAGCATCCTGTA (sugars l2 d1 l2 d6 l5, PS)” showed a caspase activation (% of PBS control) of 477. TGGCAAGCATCCTGTA (sugars l3 d10 l3, PS) showed a caspase activation (% of PBS control) of 273. CAAGCATCCTGTA (sugars l1 d11 l1, PS) showed a caspase activation (% of PBS control) of 100. Sequence “TACTGCCTTCTTA (sugars l1 d2 l1 d6 l3, PS)” has a caspase activation (% of PBS control) of 246. In the case of “TGGCAAGCATCCTGTA (sugars l3 d8 l3 d1 l1, PS)”, the caspase activation (% of PBS control) is reported as 449. For GTTACTGCCTTCTTAC (sugars l5 d9 l2, PS), the caspase activation (% of PBS control) was 363. “GCAAGCATCCTGT (sugars l2 d8 l1 d1 l1, PS)” showed a caspase activation (% of PBS control) of 281. “TGGCAAGCATCCTGTA (sugars lddldddddddllldl, PS)” showed a caspase activation (% of PBS control) of 394. Sequence “GTTACTGCCTTCTTAC (sugars llldldddddddldll, PS)” has a caspase activation (% of PBS control) of 274. Work on GGCAAGCATCCTG (sugars l2 d9 l2, PS) yielded a caspase activation (% of PBS control) of 554. “GTTACTGCCTTCTTAC (sugars l1 d1 l2 d9 l3, PS)” was tested, and the caspase activation (% of PBS control) was 141. For “GTTACTGCCTTCTTAC (sugars l3 d8 l3 d1 l1, PS)”, the caspase activation (% of PBS control) was 360. Sequence “GTTACTGCCTTCTTAC (sugars l2 d1 l2 d6 l5, PS)” has a caspase activation (% of PBS control) of 474. “GTTACTGCCTTCTTAC (sugars l3 d8 l1 d2 l2, PS)” showed a caspase activation (% of PBS control) of 204. Work on “GTTACTGCCTTCTTAC (sugars l1 d3 l1 d8 l3, PS)” yielded a caspase activation (% of PBS control) of 174. Sequence CAAGCATCCTGTA (sugars l3 d9 l1, PS) has a caspase activation (% of PBS control) of 237. ACTGCCTTCTTAC (sugars l4 d6 l3, PS) gave a caspase activation (% of PBS control) of 410. “GTTACTGCCTTCTTAC (sugars l2 d9 l1 d2 l2, PS)” showed a caspase activation (% of PBS control) of 120. For “TGGCAAGCATCCTGTA (sugars l3 d1 l1 d7 l4, PS)”, the caspase activation (% of PBS control) was 377. “TTACTGCCTTCTT (sugars l1 d2 l1 d6 l3, PS)” gave a caspase activation (% of PBS control) of 131. Sequence “GTTACTGCCTTCTTAC (sugars ldlldddddddldldl, PS)” has a caspase activation (% of PBS control) of 187. Sequence “GTTACTGCCTTCTTAC (sugars ldlldddddddlldll, PS)” has a caspase activation (% of PBS control) of 218. For “TGGCAAGCATCCTGTA (sugars l5 d6 l1 d3 l1, PS)”, the caspase activation (% of PBS control) was 371. With “CAAGCATCCTGTA (sugars l1 d1 l1 d7 l3, PS)” the caspase activation (% of PBS control) was 198. With “TGGCAAGCATCCTGTA (sugars l1 d3 l1 d8 l3, PS)” the caspase activation (% of PBS control) was 172. Work on “TGGCAAGCATCCTGTA (sugars ldlddddddddldldl, PS)” yielded a caspase activation (% of PBS control) of 206. Sequence “TGGCAAGCATCCTGTA (sugars ldldlddddddddldl, PS)” has a caspase activation (% of PBS control) of 176. Sequence “TTACTGCCTTCTT (sugars l1 d9 l1 d1 l1, PS)” has a caspase activation (% of PBS control) of 127. “GTTACTGCCTTCTTAC (sugars ldldlddddddddddl, PS)” showed a caspase activation (% of PBS control) of 175. In the case of “GTTACTGCCTTCTTAC (sugars lldldddddddldldl, PS)”, the caspase activation (% of PBS control) is reported as 193. With “TGGCAAGCATCCTGTA (sugars l2 d9 l2 d1 l2, PS)” the caspase activation (% of PBS control) was 401.
